Measurements: publication PMC9147192, “Small Molecule Arranged Thermal Proximity Coaggregation (smarTPCA)—A Novel Approach to Characterize Protein–Protein Interactions in Living Cells by Similar Isothermal Dose–Responses” (International Journal of Molecular Sciences, 2022)

How the values were obtained:
SMIM12 = molecular target: T1, SMIM12 (Homo sapiens, UniProt Q96EX1); assay: TPP-CCR in living HL-60 cells; format: cell-based
T1 construct: endogenous in cells; host or cells: HL-60 (ATCC CCL-240)
T1 sequence (Q96EX1 1-92): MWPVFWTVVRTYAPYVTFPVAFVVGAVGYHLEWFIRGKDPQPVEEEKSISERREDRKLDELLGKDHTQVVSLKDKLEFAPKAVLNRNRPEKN

NOP2 = molecular target: T2, NOP2 (Homo sapiens, UniProt P46087); assay: TPP-CCR in living HL-60 cells; format: cell-based
T2 construct: dose–responses (mean over replicates), derived from TPP-CCR experiments in living cells; endogenous in cells; host or cells: HL-60 cells (ATCC No. CCL-240)
T2 sequence (P46087 1-812): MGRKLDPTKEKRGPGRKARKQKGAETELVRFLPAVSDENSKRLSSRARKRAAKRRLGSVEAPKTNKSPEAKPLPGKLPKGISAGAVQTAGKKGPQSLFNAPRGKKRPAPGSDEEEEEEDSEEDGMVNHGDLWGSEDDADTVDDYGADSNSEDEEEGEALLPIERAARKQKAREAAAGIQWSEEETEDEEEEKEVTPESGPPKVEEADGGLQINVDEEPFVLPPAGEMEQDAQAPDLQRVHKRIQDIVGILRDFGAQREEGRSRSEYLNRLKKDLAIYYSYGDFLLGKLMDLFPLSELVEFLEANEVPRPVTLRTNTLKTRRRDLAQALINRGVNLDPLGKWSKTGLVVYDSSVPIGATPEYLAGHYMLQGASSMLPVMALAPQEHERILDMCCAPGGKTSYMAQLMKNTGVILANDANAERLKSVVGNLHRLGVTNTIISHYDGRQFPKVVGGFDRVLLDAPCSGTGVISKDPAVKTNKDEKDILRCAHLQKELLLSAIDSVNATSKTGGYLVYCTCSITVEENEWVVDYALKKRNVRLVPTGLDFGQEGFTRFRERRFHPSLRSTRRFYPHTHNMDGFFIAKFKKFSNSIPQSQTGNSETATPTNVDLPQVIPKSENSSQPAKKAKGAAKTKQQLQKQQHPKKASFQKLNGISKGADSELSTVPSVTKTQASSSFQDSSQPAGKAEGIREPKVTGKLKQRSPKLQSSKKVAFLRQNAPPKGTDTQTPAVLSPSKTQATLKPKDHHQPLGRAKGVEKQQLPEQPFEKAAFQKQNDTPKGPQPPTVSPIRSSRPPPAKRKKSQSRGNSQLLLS

[1] = living HL-60 cells, […] °C, TMT-MS

## Cc1cnc(Nc2ccc(F)cc2Cl)nc1-c1c[nH]c(C(=O)N[C@H](CO)c2cccc(Cl)c2)c1 [ERK 11e]
SMIM12; TPP-CCR, living cells, SMIM12
  Hill slope: 0.47
SMIM12; [1]
  Hill slope (SMIM12): 0.47
SMIM12; living HL-60 cells, […] °C, TMT-MS, read-out: pEC50 (SMIM12) (converted)
  EC50: 427 nM
NOP2; TPP-CCR, living cells, NOP2
  Hill slope: 0.29
NOP2; [1]
  Hill slope (NOP2): 0.29
NOP2; living HL-60 cells, […] °C, TMT-MS, read-out: pEC50 (NOP2) (converted)
  EC50: 105 nM
